Source: the NIST ThermoML archive (doi:10.1021/je0301489)

Columns and labels:
[1] = xn = mol fraction of the nth substance listed; conditions: 101.33 kPa, Liquid
[2] = refractive index (Na D-line) (dimensionless); xn = mol fraction of the nth substance listed; conditions: 101.33 kPa, Liquid

CCOC(=O)c1ccccc1C(=O)OCC [diethyl phthalate] + C1COCCO1
Conditions	mass density, 298.15 K [kg/m3]	mass density, 303.15 K [kg/m3]	mass density, 308.15 K [kg/m3]	refractive index, 298.15 K	refractive index, 303.15 K	refractive index, 308.15 K	speed of sound, 298.15 K [m/s]	viscosity, 298.15 K [mPa·s]	viscosity, 303.15 K [mPa·s]	viscosity, 308.15 K [mPa·s]
[1], x2 = 0	1115.1	1110.2	1105.6	–	–	–	1446	7.926	6.129	4.893
[1], x2 = 0.1133	1110.7	1105.8	1101	–	–	–	1435	6.52	5.327	4.134
[1], x2 = 0.2083	1106.5	1101.5	1096.6	–	–	–	1427	5.536	4.567	3.597
[1], x2 = 0.3086	1101.4	1096.3	1091.4	–	–	–	1418	4.593	3.813	3.032
[1], x2 = 0.409	1095.5	1090.4	1085.3	–	–	–	1408	3.793	3.18	2.568
[1], x2 = 0.5026	1089.1	1084	1078.7	–	–	–	1399	3.122	2.637	2.151
[1], x2 = 0.5985	1081.4	1076.1	1070.9	–	–	–	1390	2.544	2.184	1.824
[1], x2 = 0.702	1071.6	1066.1	1060.8	–	–	–	1380	2.037	1.753	1.468
[1], x2 = 0.8001	1060.2	1054.7	1049.2	–	–	–	1370	1.641	1.436	1.23
[1], x2 = 0.8975	1046.3	1040.7	1035	–	–	–	1359	1.319	1.18	1.042
[2], x2 = 0	–	–	–	1.5001	1.4978	1.4958	–	–	–	–
[2], x2 = 0.1133	–	–	–	1.4962	1.494	1.4917	–	–	–	–
[2], x2 = 0.2083	–	–	–	1.4924	1.4902	1.4882	–	–	–	–
[2], x2 = 0.3086	–	–	–	1.4882	1.486	1.4837	–	–	–	–
[2], x2 = 0.409	–	–	–	1.4826	1.4805	1.4783	–	–	–	–
[2], x2 = 0.5026	–	–	–	1.4768	1.4747	1.4724	–	–	–	–
[2], x2 = 0.5985	–	–	–	1.47	1.4676	1.4653	–	–	–	–
[2], x2 = 0.702	–	–	–	1.4608	1.4585	1.4564	–	–	–	–
[2], x2 = 0.8001	–	–	–	1.4504	1.4481	1.4457	–	–	–	–
[2], x2 = 0.8975	–	–	–	1.4376	1.435	1.4326	–	–	–	–

CCCCCCCCOC(=O)c1ccccc1C(=O)OCCCCCCCC [dioctyl 1,2-benzenedicarboxylate] + C1COCCO1
Conditions	mass density, 298.15 K [kg/m3]	mass density, 303.15 K [kg/m3]	mass density, 308.15 K [kg/m3]	refractive index, 298.15 K	refractive index, 303.15 K	refractive index, 308.15 K	speed of sound, 298.15 K [m/s]	viscosity, 298.15 K [mPa·s]	viscosity, 303.15 K [mPa·s]	viscosity, 308.15 K [mPa·s]
[1], x2 = 0	980.7	977.1	973.1	–	–	–	1421	43.03	30.18	21.88
[1], x2 = 0.1337	982.2	978.3	974.4	–	–	–	1416	32.58	24.97	17.36
[1], x2 = 0.2243	983.4	979.4	975.2	–	–	–	1412	26.39	20.41	14.44
[1], x2 = 0.3207	984.8	980.5	976.4	–	–	–	1406	20.73	16.1	11.47
[1], x2 = 0.4226	986.5	982.2	977.8	–	–	–	1400	15.4	12.12	8.836
[1], x2 = 0.5169	988.4	983.9	979.6	–	–	–	1394	11.02	8.852	6.689
[1], x2 = 0.6054	990.7	986.3	981.9	–	–	–	1388	8.056	6.528	5.001
[1], x2 = 0.7161	995	990.5	985.9	–	–	–	1379	4.947	4.096	3.246
[1], x2 = 0.8031	1000.2	995.4	990.6	–	–	–	1372	3.213	2.717	2.222
[1], x2 = 0.9017	1009.9	1004.6	999.5	–	–	–	1361	1.863	1.612	1.361
[2], x2 = 0	–	–	–	1.485	1.4831	1.481	–	–	–	–
[2], x2 = 0.1337	–	–	–	1.4836	1.4819	1.4804	–	–	–	–
[2], x2 = 0.2243	–	–	–	1.4822	1.4798	1.4775	–	–	–	–
[2], x2 = 0.3207	–	–	–	1.4812	1.4784	1.4756	–	–	–	–
[2], x2 = 0.4226	–	–	–	1.4781	1.4771	1.4762	–	–	–	–
[2], x2 = 0.5169	–	–	–	1.4733	1.4717	1.47	–	–	–	–
[2], x2 = 0.6054	–	–	–	1.4692	1.4673	1.4652	–	–	–	–
[2], x2 = 0.7161	–	–	–	1.463	1.461	1.46	–	–	–	–
[2], x2 = 0.8031	–	–	–	1.4566	1.4541	1.4516	–	–	–	–
[2], x2 = 0.9017	–	–	–	1.4422	1.4401	1.4379	–	–	–	–
